Experimental data published in US20110028717A1, “AZAINDOLE DERIVATIVE HAVING PGD2 RECEPTOR ANTAGONISTIC ACTIVITY” (priority 2005, published 2011).

target: T1, DP receptor (Homo sapiens, UniProt Q13258); assay: Receptor binding assay, [3H]-PGD2, platelet membrane; details: [3H]-PGD2, human platelet membrane
T1 construct: endogenous in cells; host or cells: washed platelets from peripheral blood of a healthy volunteer
T1 sequence (Q13258 1-359): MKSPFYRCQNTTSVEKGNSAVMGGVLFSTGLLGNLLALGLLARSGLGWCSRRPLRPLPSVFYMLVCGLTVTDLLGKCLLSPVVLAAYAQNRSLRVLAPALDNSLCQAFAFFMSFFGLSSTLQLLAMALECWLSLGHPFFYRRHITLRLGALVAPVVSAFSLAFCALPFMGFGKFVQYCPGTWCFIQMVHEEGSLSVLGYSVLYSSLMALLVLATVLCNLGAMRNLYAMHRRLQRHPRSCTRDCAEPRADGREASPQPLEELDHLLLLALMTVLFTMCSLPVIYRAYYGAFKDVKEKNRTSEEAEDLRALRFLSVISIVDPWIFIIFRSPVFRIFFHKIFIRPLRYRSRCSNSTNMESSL
Description: A prepared WP was homogenated and a membrane fraction was collected with high-speed centrifugation. A compound of the present invention or a reference compound A (No. IC-73 in WO 2003/097598) was added to the plate and [^3H]-PGD2 was also added. A platelet membrane, a protein concentration is 2 mg/mL, was added and mixed in the plate, and placed on ice for 2 hours. The reaction solution was transferred to a low protein-adsorptive filter and washed with a wash solution eight times using a cell harvester. After the final washing, water was removed sufficiently, and micoscinti was added. DP inhibitory activity was investigated by measuring [^3H] by using Micro Beta.

Row | Structure (SMILES) | Ki [nM]
1 | CC(C)Oc1ccc(S(=O)(=O)N2CCC(c3cn(CC(=O)O)c4ncccc34)CC2)cc1 [Compound I-1] | 1
2 | CC[C@@H](C)Oc1ccc(S(=O)(=O)N2CCC(c3cn(CC(=O)O)c4ncccc34)CC2)cc1 [Compound I-6] | 1
3 | CC(C)Oc1ccc(S(=O)(=O)N2CCC(c3cn(CC(=O)O)c4nc(Br)ccc34)CC2)cc1 [Compound I-13] | 0.85
4 | COc1ccc2c(C3CCN(S(=O)(=O)c4ccc(OC(C)C)cc4)CC3)cn(CC(=O)O)c2n1 [Compound I-14] | 0.61
5 | CC(C)Oc1ccc(S(=O)(=O)N2CCC(c3cn(CC(=O)O)c4nc(-c5ccc(F)cc5)ccc34)CC2)cc1 [Compound I-17] | 0.25
6 | CC(C)Oc1ccc(S(=O)(=O)N2CCC(c3cn(CC(=O)O)c4nc(-c5nccs5)ccc34)CC2)cc1 [Compound I-20] | 0.48
7 | CC(C)Oc1ccc(S(=O)(=O)N2CCC(c3cn(CC(=O)O)c4nc(NC(=O)OC(C)(C)C)ccc34)CC2)cc1 [Compound I-21] | 0.51

system: Brown Norway (BN) Rats; assay: OVA asthma model of rat (hyperresponsive airway, infiltration of inflammatory cells, mucus secretion); type: in vivo; details: 10 mg/kg p.o. once a day for three days, mucin in airway lavage fluid vs control group
Description: Brown Norway (BN) Rats were sensitized by i.p. administration of 0.1 mg/mL of ovalbumin (OVA) and 1 mg of aluminum hydroxide gel. A solution of 1% OVA was aerosolized by ultrasonic nebulizer (NE-U 17) and the rats were subjected to inhalation exposure of the aerosol for 30 minutes in an exposing chamber 12, 19, 26 and 33 days after the sensitization. One hour before the 4th exposure of the antigen, compounds of the present invention were administered in a dose of 10 mg/kg p.o. once a day for three days consecutively. In a control group, 0.5% of methyl cellulose was administered in place of the compound of the present invention.
Under pentobarbital anesthesia (80 mg/kg, i.p.), acetylcholine (3.9, 7.8, 15.6, 31.3, 62.5, 125, 250 and 500 μg/kg) was injected to jugular vein of the rats successively from a lower dose at intervals of 5 minutes three days after the fourth exposure to the antigen, and immediate contractile reaction of airways (an increase of insufflation pressure) was measured by a modified method of Konnzett & Rössler. Inhibition rate of increased hyperresponsive airway against the control group was calculated based on area under curve (AUC) obtained from concentration-response curve of acetylcholine.
After the measurement of increased hyperresponsive airway was completed, bronchoalveoli of the rats were washed with 5 mL of saline three times. Total cell number in the washings was counted by a hemacytometer under light microscope, and inhibition rates of infiltration of inflammatory cells against the control group were calculated. Further, muchin in the airway lavage fluid was measured by ELIZA method using jacalin, a muchin-binding lectin, and the inhibition rates of mucus-secretion against the control group were calculated.

Row | Structure (SMILES) | inhibition rate (%) mucus-secretion [%]
8 | CC(C)Oc1ccc(S(=O)(=O)N2CCC(c3cn(CC(=O)O)c4ncccc34)CC2)cc1 [Compound I-1] | 68
9 | CC[C@@H](C)Oc1ccc(S(=O)(=O)N2CCC(c3cn(CC(=O)O)c4ncccc34)CC2)cc1 [Compound I-6] | 77
10 | CC(C)Oc1ccc(S(=O)(=O)N2CCC(c3cn(CC(=O)O)c4nc(Br)ccc34)CC2)cc1 [Compound I-13] | 44
11 | COc1ccc2c(C3CCN(S(=O)(=O)c4ccc(OC(C)C)cc4)CC3)cn(CC(=O)O)c2n1 [Compound I-14] | 88

same assay, conditions: 10 mg/kg p.o. once a day for three days, total cell number in bronchoalveolar washings vs control group

Row | Structure (SMILES) | inhibition rate (%) infiltration of inflammatory cells [%]
12 | CC(C)Oc1ccc(S(=O)(=O)N2CCC(c3cn(CC(=O)O)c4ncccc34)CC2)cc1 [Compound I-1] | 63
13 | CC[C@@H](C)Oc1ccc(S(=O)(=O)N2CCC(c3cn(CC(=O)O)c4ncccc34)CC2)cc1 [Compound I-6] | 60
14 | CC(C)Oc1ccc(S(=O)(=O)N2CCC(c3cn(CC(=O)O)c4nc(Br)ccc34)CC2)cc1 [Compound I-13] | 62
15 | COc1ccc2c(C3CCN(S(=O)(=O)c4ccc(OC(C)C)cc4)CC3)cn(CC(=O)O)c2n1 [Compound I-14] | 68

same assay, conditions: 10 mg/kg p.o. once a day for three days, vs control group, AUC of acetylcholine response

Row | Structure (SMILES) | inhibition rate (%) increased hyperresponsive airway [%]
16 | CC(C)Oc1ccc(S(=O)(=O)N2CCC(c3cn(CC(=O)O)c4ncccc34)CC2)cc1 [Compound I-1] | 55
17 | CC[C@@H](C)Oc1ccc(S(=O)(=O)N2CCC(c3cn(CC(=O)O)c4ncccc34)CC2)cc1 [Compound I-6] | 69
18 | CC(C)Oc1ccc(S(=O)(=O)N2CCC(c3cn(CC(=O)O)c4nc(Br)ccc34)CC2)cc1 [Compound I-13] | 58
19 | COc1ccc2c(C3CCN(S(=O)(=O)c4ccc(OC(C)C)cc4)CC3)cn(CC(=O)O)c2n1 [Compound I-14] | 84

target: T1, DP receptor; assay: cAMP assay with washed platelets (PGD2-stimulated cAMP, HTRF); type: cell-based; details: 100 nM PGD2, cAMP by HTRF, read-out: IC50 (50% DP-inhibitory concentration in the cAMP assay)
Description: 30 ml of peripheral blood was collected from a healthy volunteer using a syringe containing one ninth amount of 3.8% sodium citrate for diagnosis. After being centrifuged at 180 g for 10 minutes at room temperature, a supernatant was collected and used as Platelet Rich Plasma (PRP). The resulting PRP was washed with wash buffer and centrifuged three times (Washed Platelet: WP) and platelets were counted by a microcell counter. WP was added to a plate in amount of 1.5×10^8/assay and the plate was treated with 3-isobutyl-1-methylxanthin (IBMX; 0.5 mM) for 5 minutes. A reaction was initiated by adding 100 nM of PGD2 5 min after an addition of a test compound. The reaction was terminated with an addition of 1N hydrochloric acid after 2 minutes and the cells were destructed using 12% triton X-100. An amount of cAMP in the supernatant was assayed by Homogeneous […] (HTRF)

Row | Structure (SMILES) | IC50 [nM]
20 | CC(C)Oc1ccc(S(=O)(=O)N2CCC(c3cn(CC(=O)O)c4ncccc34)CC2)cc1 [Compound I-1] | 0.58
21 | CC[C@@H](C)Oc1ccc(S(=O)(=O)N2CCC(c3cn(CC(=O)O)c4ncccc34)CC2)cc1 [Compound I-6] | 0.93
22 | CC(C)Oc1ccc(S(=O)(=O)N2CCC(c3cn(CC(=O)O)c4nc(Br)ccc34)CC2)cc1 [Compound I-13] | 0.51
23 | COc1ccc2c(C3CCN(S(=O)(=O)c4ccc(OC(C)C)cc4)CC3)cn(CC(=O)O)c2n1 [Compound I-14] | 0.33
24 | CC(C)Oc1ccc(S(=O)(=O)N2CCC(c3cn(CC(=O)O)c4nc(-c5ccccc5)ccc34)CC2)cc1 [Compound I-16] | 0.64
25 | CC(C)Oc1ccc(S(=O)(=O)N2CCC(c3cn(CC(=O)O)c4nc(-c5ccc(F)cc5)ccc34)CC2)cc1 [Compound I-17] | 0.88
26 | CC(C)Oc1ccc(S(=O)(=O)N2CCC(c3cn(CC(=O)O)c4nc(-c5ccccn5)ccc34)CC2)cc1 [Compound I-19] | 2.2
27 | CC(C)Oc1ccc(S(=O)(=O)N2CCC(c3cn(CC(=O)O)c4nc(-c5nccs5)ccc34)CC2)cc1 [Compound I-20] | 0.64
28 | CC(C)Oc1ccc(S(=O)(=O)N2CCC(c3cn(CC(=O)O)c4nc(NC(=O)OC(C)(C)C)ccc34)CC2)cc1 [Compound I-21] | 1.9
29 | CC(C)Oc1ccc(S(=O)(=O)N2CCC(c3cn(CC(=O)O)c4nc(-c5ccoc5)ccc34)CC2)cc1 [Compound I-25] | 1.1
30 | CC(C)Oc1ccc(S(=O)(=O)N2CCC(c3cn(CC(=O)O)c4nc(-c5ccco5)ccc34)CC2)cc1 [Compound I-26] | 1.7
31 | CCOc1ccc2c(C3CCN(S(=O)(=O)c4ccc(OC(C)C)cc4)CC3)cn(CC(=O)O)c2n1 [Compound I-29] | 1.5
32 | CC(C)Oc1ccc(S(=O)(=O)N2CCC(c3cn(CC(=O)O)c4nc(OCc5ccccc5)ccc34)CC2)cc1 [Compound I-31] | 1.7
